Source: US12497365B2, “4-pyridinyl formamide compound or derivative thereof, preparation method therefor, herbicidal composition and use thereof” (Qingdao Kingagroot Chemical Compound Co., Ltd., priority 2019, dated 2025)

Experiments:
Experiment in all cases: Weeding effect in post-emergence stage
Format in all cases: in vivo
Conditions in all cases: active ingredient 2000 g/ha, 3 weeks after application, fresh weight control rate
[1] = test system: Amaranthus retroflexus L.
Procedure, shortened: (§1)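 Greenhouse-grown weeds at the 2-3 leaf stage, about 2 weeks after sowing, were sprayed with compound at 2000-125 g/ha. The spray solution was made from acetone with Tween 80 and 1.5 L/ha methyl oleate concentrate as synergist. Fresh-weight growth control was scored 3 weeks after treatment.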

Chenopodium album = test system: Chenopodium album
Procedure, shortened: as §1

Abutilon theophrasti = test system: Abutilon theophrasti
Procedure, shortened: as §1

Descurainia sophia = test system: Descurainia sophia
Procedure, shortened: as §1

Row | SMILES | Weeding effect, activity level (growth control rate), Amaranthus retroflexus L. [1] | Weeding effect, activity level (growth control rate), Chenopodium album (Chenopodium album) | Weeding effect, activity level (growth control rate), Abutilon theophrasti (Abutilon theophrasti) | Weeding effect, activity level (growth control rate), Descurainia sophia (Descurainia sophia)
1 | CCOc1c(C(=O)Nc2nnnn2C)ccnc1-c1ccc(F)cc1 [Compound 1-201] | 5 (Level 5: growth control rate is above 85%) | 5 (Level 5: growth control rate is above 85%) | 5 (Level 5: growth control rate is above 85%) | 5 (Level 5: growth control rate is above 85%)
2 | Cn1nnnc1NC(=O)c1ccnc(-c2cc(F)c(F)c(F)c2)c1Cl [Compound 1-109] | 5 (Level 5: growth control rate is above 85%) | 5 (Level 5: growth control rate is above 85%) | 5 (Level 5: growth control rate is above 85%) | 5 (Level 5: growth control rate is above 85%)
3 | Cn1nnnc1NC(=O)c1ccnc(-c2ccc(F)cc2)c1F [Compound 1-195] | 5 (Level 5: growth control rate is above 85%) | 5 (Level 5: growth control rate is above 85%) | 5 (Level 5: growth control rate is above 85%) | 5 (Level 5: growth control rate is above 85%)
4 | Cn1nnnc1NC(=O)c1ccnc(-c2ccc(N)cc2)c1Cl [Compound 1-37] | 5 (Level 5: growth control rate is above 85%) | 5 (Level 5: growth control rate is above 85%) | 5 (Level 5: growth control rate is above 85%) | 5 (Level 5: growth control rate is above 85%)
5 | COCCc1c(C(=O)Nc2nnnn2C)ccnc1-c1ccc(F)cc1 [Compound 1-217] | 5 (Level 5: growth control rate is above 85%) | 5 (Level 5: growth control rate is above 85%) | 5 (Level 5: growth control rate is above 85%) | 5 (Level 5: growth control rate is above 85%)
6 | Cn1nnnc1NC(=O)c1ccnc(-c2cc(C(C)(C)C)cc(C(C)(C)C)c2)c1Cl [Compound 1-61] | 5 (Level 5: growth control rate is above 85%) | 5 (Level 5: growth control rate is above 85%) | 5 (Level 5: growth control rate is above 85%) | 5 (Level 5: growth control rate is above 85%)
7 | CCC(OC)c1c(C(=O)Nc2nnnn2C)ccnc1-c1ccc(F)cc1 (stereo not shown) [Compound 1-216] | 5 (Level 5: growth control rate is above 85%) | 5 (Level 5: growth control rate is above 85%) | 5 (Level 5: growth control rate is above 85%) | 5 (Level 5: growth control rate is above 85%)
8 | Cn1nnnc1NC(=O)c1ccnc(-c2cccc(OCc3ccccc3)c2)c1Cl [Compound 1-56] | 5 (Level 5: growth control rate is above 85%) | 5 (Level 5: growth control rate is above 85%) | 5 (Level 5: growth control rate is above 85%) | 5 (Level 5: growth control rate is above 85%)
9 | Cn1nnnc1NC(=O)c1ccnc(-c2ccnc(C#N)c2)c1Cl [Compound 1-148] | 5 (Level 5: growth control rate is above 85%) | 5 (Level 5: growth control rate is above 85%) | 5 (Level 5: growth control rate is above 85%) | 5 (Level 5: growth control rate is above 85%)
10 | Cn1nnnc1NC(=O)c1ccnc(-c2cccc(S(C)(=O)=O)c2)c1Cl [Compound 1-44] | 5 (Level 5: growth control rate is above 85%) | 5 (Level 5: growth control rate is above 85%) | 5 (Level 5: growth control rate is above 85%) | 5 (Level 5: growth control rate is above 85%)
11 | CCCC1CCC(c2ccc(-c3nccc(C(=O)Nc4nnnn4C)c3Cl)cc2)CC1 (stereo not shown) [Compound 1-14] | 5 (Level 5: growth control rate is above 85%) | 5 (Level 5: growth control rate is above 85%) | 5 (Level 5: growth control rate is above 85%) | 5 (Level 5: growth control rate is above 85%)
12 | Cn1nnnc1NC(=O)c1ccnc(-c2cccc(CO)c2)c1Cl [Compound 1-36] | 5 (Level 5: growth control rate is above 85%) | 5 (Level 5: growth control rate is above 85%) | 5 (Level 5: growth control rate is above 85%) | 5 (Level 5: growth control rate is above 85%)
13 | COc1c(Cl)ccc(-c2nccc(C(=O)Nc3nnnn3C)c2Cl)c1F [Compound 1-110] | 5 (Level 5: growth control rate is above 85%) | 5 (Level 5: growth control rate is above 85%) | 5 (Level 5: growth control rate is above 85%) | 5 (Level 5: growth control rate is above 85%)
14 | Cc1cccc(C)c1-c1nccc(C(=O)Nc2nnnn2C)c1Cl [Compound 1-58] | 5 (Level 5: growth control rate is above 85%) | 5 (Level 5: growth control rate is above 85%) | 5 (Level 5: growth control rate is above 85%) | 5 (Level 5: growth control rate is above 85%)
15 | Cn1nnnc1NC(=O)c1ccnc(-c2cncs2)c1Cl [Compound 1-229] | 5 (Level 5: growth control rate is above 85%) | 5 (Level 5: growth control rate is above 85%) | 5 (Level 5: growth control rate is above 85%) | 5 (Level 5: growth control rate is above 85%)
16 | Cn1nnnc1NC(=O)c1ccnc(-c2cnc(F)nc2)c1Cl [Compound 1-158] | 5 (Level 5: growth control rate is above 85%) | 5 (Level 5: growth control rate is above 85%) | 5 (Level 5: growth control rate is above 85%) | 5 (Level 5: growth control rate is above 85%)
17 | C=Cc1ccc(-c2nccc(C(=O)Nc3nnnn3C)c2Cl)cc1 [Compound 1-1918] | 5 (Level 5: growth control rate is above 85%) | 5 (Level 5: growth control rate is above 85%) | 5 (Level 5: growth control rate is above 85%) | 5 (Level 5: growth control rate is above 85%)
18 | Cn1nnnc1NC(=O)c1ccnc(-c2cccnc2F)c1Cl [Compound 1-127] | 5 (Level 5: growth control rate is above 85%) | 5 (Level 5: growth control rate is above 85%) | 5 (Level 5: growth control rate is above 85%) | 5 (Level 5: growth control rate is above 85%)
19 | Cc1cc(Cl)ncc1-c1nccc(C(=O)Nc2nnnn2C)c1Cl [Compound 1-138] | 5 (Level 5: growth control rate is above 85%) | 5 (Level 5: growth control rate is above 85%) | 5 (Level 5: growth control rate is above 85%) | 5 (Level 5: growth control rate is above 85%)
20 | Cn1nnnc1NC(=O)c1ccnc(C2=CCCCC2)c1Cl [Compound 1-5] | 5 (Level 5: growth control rate is above 85%) | 5 (Level 5: growth control rate is above 85%) | 5 (Level 5: growth control rate is above 85%) | 5 (Level 5: growth control rate is above 85%)
21 | Cc1[nH]ncc1-c1nccc(C(=O)Nc2nnnn2C)c1Cl [Compound 1-171] | 5 (Level 5: growth control rate is above 85%) | 5 (Level 5: growth control rate is above 85%) | 5 (Level 5: growth control rate is above 85%) | 5 (Level 5: growth control rate is above 85%)
22 | Cn1nnnc1NC(=O)c1ccnc(-c2ccc(C#N)cc2)c1Cl [Compound 1-50] | 5 (Level 5: growth control rate is above 85%) | 5 (Level 5: growth control rate is above 85%) | 5 (Level 5: growth control rate is above 85%) | 5 (Level 5: growth control rate is above 85%)
